Results: article PMC12024264, “Frog Skin Peptides Hylin-a1, AR-23, and RV-23: Promising Tools Against Carbapenem-Resistant Escherichia coli and Klebsiella pneumoniae Infections” (Antibiotics, 2025)
Where two headings read alike, the source gives them in different places.

What was measured:
Test in all cases: Antibiotic resistance profile of clinical isolate (Table S1)
[1] = tested on: E. coli 3140; assay type: cell-based, Escherichia coli
Description: (§1) Each strain was grown in Mueller Hinton Broth (MH Broth), and 5 × 10^5 CFU/mL was used to evaluate antibacterial activity. Clinical carbapenem-resistant K. pneumoniae and E. coli isolates were collected at the AOU of Virology and Microbiology of the University of Campania “Luigi Vanvitelli”. […]
(§2) Table S1. Antibiotic resistance profile of K. pneumoniae and E. coli clinical isolates . MIC: Minimum Inhibitory
(§3) Concentration was expressed in µg/mL; S: Sensible; I: Intermediate; R: Resistant.
(§4) Antibiotic Resistance Profile of the Clinical Isolated Bacteria
(§5) Antibiotics MIC (µg/mL) Interpretation […]

[2] = tested on: E. coli 1441; assay type: cell-based, Escherichia coli
Description: as §1, §2, §3, §4, §5

[3] = tested on: E. coli 716; assay type: cell-based, Escherichia coli
Description: as §1, §2, §3, §4, §5

[4] = tested on: E. coli 2267; assay type: cell-based, Escherichia coli
Description: as §1, §2, §3, §4, §5

[5] = tested on: E. coli 1376; assay type: cell-based, Escherichia coli
Description: as §1, §2, §3, §4, §5

[6] = tested on: K. pneumoniae 311; assay type: cell-based, Klebsiella pneumoniae
Description: as §1, §2, §3, §4, §5

[7] = tested on: K. pneumoniae 1746; assay type: cell-based, Klebsiella pneumoniae
Description: as §1, §2, §3, §4, §5

[8] = tested on: K. pneumoniae 1711; assay type: cell-based, Klebsiella pneumoniae
Description: as §1, §2, §3, §4, §5

[9] = tested on: K. pneumoniae 1745; assay type: cell-based, Klebsiella pneumoniae
Description: as §1, §2, §3, §4, §5

[10] = Escherichia coli, Table S1, E. coli 2267, read-out: MIC
[11] = Klebsiella pneumoniae, Table S1, K. pneumoniae 1711, read-out: MIC
[12] = Klebsiella pneumoniae, Table S1, K. pneumoniae 1745, read-out: MIC

CNC(C)C1CCC(N)C(OC2C(N)CC(N)C(OC3OCC(C)(O)C(NC)C3O)C2O)O1 (centres unmarked) [Gentamicin]
≤ 1 µg/mL: MIC ([1]; Escherichia coli, 3140) | MIC ([2]; Escherichia coli, 1441) | MIC ([3]; Escherichia coli, 716) | MIC ([4]; Escherichia coli, 2267)
> 4 µg/mL: MIC ([5]; Escherichia coli, 1376) | MIC ([6]; Klebsiella pneumoniae, 311) | MIC ([8]; Klebsiella pneumoniae, 1711) | MIC ([9]; Klebsiella pneumoniae, 1745)
2 µg/mL: MIC ([7]; Klebsiella pneumoniae, 1746)
S: Interpretation ([1]; Table S1, E. coli 3140) | Interpretation ([2]; Table S1, E. coli 1441) | Interpretation ([3]; Table S1, E. coli 716) | Interpretation ([4]; Table S1, E. coli 2267) | Interpretation ([7]; Table S1, K. pneumoniae 1746)
R: Interpretation ([5]; Table S1, E. coli 1376) | Interpretation ([6]; Table S1, K. pneumoniae 311) | Interpretation ([8]; Table S1, K. pneumoniae 1711) | Interpretation ([9]; Table S1, K. pneumoniae 1745)

C[C@@H](O)[C@H]1C(=O)N2C(C(=O)O)=C(SCCN=CN)C[C@H]12 [Imipenem]
2 µg/mL: MIC ([1]; Escherichia coli, 3140) | MIC ([6]; Klebsiella pneumoniae, 311)
I: Interpretation ([2]; Table S1, E. coli 1441) | Interpretation ([7]; Table S1, K. pneumoniae 1746)
> 8 µg/mL: MIC ([3]; Escherichia coli, 716) | MIC [4, 10] | MIC ([5]; Escherichia coli, 1376) | MIC [8, 11] | MIC [9, 12]
4 µg/mL: MIC ([2]; Escherichia coli, 1441) | MIC ([7]; Klebsiella pneumoniae, 1746)
S: Interpretation ([1]; Table S1, E. coli 3140) | Interpretation ([6]; Table S1, K. pneumoniae 311)
R: Interpretation ([3]; Table S1, E. coli 716) | Interpretation ([4]; Table S1, E. coli 2267) | Interpretation ([5]; Table S1, E. coli 1376) | Interpretation ([8]; Table S1, K. pneumoniae 1711) | Interpretation ([9]; Table S1, K. pneumoniae 1745)

C[C@H]1COc2c(N3CCN(C)CC3)c(F)cc3c(=O)c(C(=O)O)cn1c23 [Levofloxacin]
1 µg/mL: MIC ([7]; Klebsiella pneumoniae, 1746)
≤ 0.25 µg/mL: MIC ([1]; Escherichia coli, 3140) | MIC ([2]; Escherichia coli, 1441)
> 1 µg/mL: MIC ([3]; Escherichia coli, 716) | MIC [4, 10] | MIC ([5]; Escherichia coli, 1376) | MIC ([6]; Klebsiella pneumoniae, 311) | MIC [8, 11] | MIC [9, 12]
R: Interpretation ([3]; Table S1, E. coli 716) | Interpretation ([4]; Table S1, E. coli 2267) | Interpretation ([5]; Table S1, E. coli 1376) | Interpretation ([6]; Table S1, K. pneumoniae 311) | Interpretation ([8]; Table S1, K. pneumoniae 1711) | Interpretation ([9]; Table S1, K. pneumoniae 1745)
I: Interpretation ([7]; Table S1, K. pneumoniae 1746)
S: Interpretation ([1]; Table S1, E. coli 3140) | Interpretation ([2]; Table S1, E. coli 1441)

NC[C@H]1O[C@H](O[C@H]2[C@H](O)[C@@H](O[C@H]3O[C@H](CO)[C@@H](O)[C@H](N)[C@H]3O)[C@H](N)C[C@@H]2N)[C@H](N)C[C@@H]1O [Tobramycin]
S: Interpretation ([1]; Table S1, E. coli 3140) | Interpretation ([2]; Table S1, E. coli 1441) | Interpretation ([3]; Table S1, E. coli 716) | Interpretation ([4]; Table S1, E. coli 2267)
≤ 1 µg/mL: MIC ([1]; Escherichia coli, 3140) | MIC ([2]; Escherichia coli, 1441) | MIC ([3]; Escherichia coli, 716) | MIC [4, 10]
> 4 µg/mL: MIC ([5]; Escherichia coli, 1376) | MIC ([6]; Klebsiella pneumoniae, 311) | MIC ([7]; Klebsiella pneumoniae, 1746) | MIC [8, 11] | MIC [9, 12]
R: Interpretation ([5]; Table S1, E. coli 1376) | Interpretation ([6]; Table S1, K. pneumoniae 311) | Interpretation ([7]; Table S1, K. pneumoniae 1746) | Interpretation ([8]; Table S1, K. pneumoniae 1711) | Interpretation ([9]; Table S1, K. pneumoniae 1745)

Amoxicillin/clavulanate
R: Interpretation ([1]; Table S1, E. coli 3140) | Interpretation ([2]; Table S1, E. coli 1441) | Interpretation ([3]; Table S1, E. coli 716) | Interpretation ([4]; Table S1, E. coli 2267) | Interpretation ([5]; Table S1, E. coli 1376) | Interpretation ([6]; Table S1, K. pneumoniae 311) | Interpretation ([7]; Table S1, K. pneumoniae 1746) | Interpretation ([8]; Table S1, K. pneumoniae 1711) | Interpretation ([9]; Table S1, K. pneumoniae 1745)
> 32/2: MIC ([2]; Table S1, E. coli 1441) | MIC ([5]; Table S1, E. coli 1376) | MIC ([6]; Table S1, K. pneumoniae 311) | MIC ([7]; Table S1, K. pneumoniae 1746) | MIC ([8]; Table S1, K. pneumoniae 1711) | MIC ([9]; Table S1, K. pneumoniae 1745)

Ceftazidime-avibactam
> 8/4: MIC ([7]; Table S1, K. pneumoniae 1746) | MIC ([8]; Table S1, K. pneumoniae 1711) | MIC ([9]; Table S1, K. pneumoniae 1745)
8/4: MIC ([3]; Table S1, E. coli 716) | MIC ([4]; Table S1, E. coli 2267)
R: Interpretation ([7]; Table S1, K. pneumoniae 1746) | Interpretation ([8]; Table S1, K. pneumoniae 1711) | Interpretation ([9]; Table S1, K. pneumoniae 1745)
1/ 4: MIC ([6]; Table S1, K. pneumoniae 311)
S: Interpretation ([1]; Table S1, E. coli 3140) | Interpretation ([2]; Table S1, E. coli 1441) | Interpretation ([3]; Table S1, E. coli 716) | Interpretation ([4]; Table S1, E. coli 2267) | Interpretation ([5]; Table S1, E. coli 1376) | Interpretation ([6]; Table S1, K. pneumoniae 311)

Ceftolozano tazobactam
> 4/4: MIC ([1]; Table S1, E. coli 3140) | MIC ([2]; Table S1, E. coli 1441) | MIC ([3]; Table S1, E. coli 716) | MIC ([4]; Table S1, E. coli 2267) | MIC ([5]; Table S1, E. coli 1376) | MIC ([6]; Table S1, K. pneumoniae 311) | MIC ([7]; Table S1, K. pneumoniae 1746) | MIC ([8]; Table S1, K. pneumoniae 1711) | MIC ([9]; Table S1, K. pneumoniae 1745)
R: Interpretation ([1]; Table S1, E. coli 3140) | Interpretation ([2]; Table S1, E. coli 1441) | Interpretation ([3]; Table S1, E. coli 716) | Interpretation ([4]; Table S1, E. coli 2267) | Interpretation ([5]; Table S1, E. coli 1376) | Interpretation ([6]; Table S1, K. pneumoniae 311) | Interpretation ([7]; Table S1, K. pneumoniae 1746) | Interpretation ([8]; Table S1, K. pneumoniae 1711) | Interpretation ([9]; Table S1, K. pneumoniae 1745)

Meropenem-vaborbactam
≤ 2/8: MIC ([1]; Table S1, E. coli 3140) | MIC ([2]; Table S1, E. coli 1441) | MIC ([7]; Table S1, K. pneumoniae 1746)
S: Interpretation ([1]; Table S1, E. coli 3140) | Interpretation ([2]; Table S1, E. coli 1441) | Interpretation ([6]; Table S1, K. pneumoniae 311) | Interpretation ([7]; Table S1, K. pneumoniae 1746)
4/ 8: MIC ([6]; Table S1, K. pneumoniae 311)
> 8/8: MIC ([5]; Table S1, E. coli 1376) | MIC ([8]; Table S1, K. pneumoniae 1711) | MIC ([9]; Table S1, K. pneumoniae 1745)
> 32/2: MIC ([3]; Table S1, E. coli 716)
R: Interpretation ([3]; Table S1, E. coli 716) | Interpretation ([4]; Table S1, E. coli 2267) | Interpretation ([5]; Table S1, E. coli 1376) | Interpretation ([8]; Table S1, K. pneumoniae 1711) | Interpretation ([9]; Table S1, K. pneumoniae 1745)

Piperacillin/tazobactam
R: Interpretation ([1]; Table S1, E. coli 3140) | Interpretation ([2]; Table S1, E. coli 1441) | Interpretation ([3]; Table S1, E. coli 716) | Interpretation ([4]; Table S1, E. coli 2267) | Interpretation ([5]; Table S1, E. coli 1376) | Interpretation ([6]; Table S1, K. pneumoniae 311) | Interpretation ([7]; Table S1, K. pneumoniae 1746) | Interpretation ([8]; Table S1, K. pneumoniae 1711) | Interpretation ([9]; Table S1, K. pneumoniae 1745)
> 64/4: MIC ([1]; Table S1, E. coli 3140) | MIC ([2]; Table S1, E. coli 1441) | MIC ([3]; Table S1, E. coli 716) | MIC ([4]; Table S1, E. coli 2267) | MIC ([5]; Table S1, E. coli 1376) | MIC ([6]; Table S1, K. pneumoniae 311) | MIC ([8]; Table S1, K. pneumoniae 1711) | MIC ([9]; Table S1, K. pneumoniae 1745)
32/4: MIC ([7]; Table S1, K. pneumoniae 1746)
